Literature values, collected in patent US20250339446A1 (Kessler Foundation Inc., priority 2016, published 2025).

Assays:
[1] = tested on: muscle mass, muscle strength, and bone; conditions: androgen-deficient men and older men with low testosterone levels; testosterone alone; cited from earlier work
[2] = tested on: bone mineral density (BMD); conditions: rat, hind limb unweighting; cited from earlier work
[3] = daily administration; cited from earlier work
[4] = tested on: BMD in the vertebrae; conditions: men with idiopathic osteoporosis; cited from earlier work

Row | Compound | muscle mass, muscle strength, and bone [1] | immobilization-related decrease in BMD [2] | absorption and elimination after transdermal application [3] | BMD in the vertebrae [4]
1 | C[C@]12CC[C@H]3[C@@H](CCC4=CC(=O)CC[C@@]43C)[C@@H]1CC[C@@H]2O [testosterone] | increase muscle mass, muscle strength, and bone | blocked much of the immobilization-related decrease in BMD | absorbed and eliminated over the course of a day | increased BMD in the vertebrae
2 | C[C@]12CC[C@H]3[C@@H](CCC4=CC(=O)CC[C@@H]43)[C@@H]1CC[C@@H]2O [nandrolone] |  | blocked much of the immobilization-related decrease in BMD |  | 
